Test results as given in the NIST ThermoML archive (doi:10.1016/j.jct.2019.04.014).

Columns and labels:
[1] = for Normal melting temperature: Crystal, DTA; for vapor or sublimation pressure: Liquid, Determined from thermal gravimetric analysis data
[2] = Boiling temperature at pressure P; details: 94.4 kPa; Liquid; DSC
[3] = Molar enthalpy of transition or fusion; details: Crystal; DSC

NC(=O)c1ccc[n+]([O-])c1 [nicotinamide N-oxide]
Details	Normal melting temperature [°C]
[1]	289.50

Cc1ccc[n+]([O-])c1 [3-picoline N-oxide]
Details	Boiling temperature at pressure P [°C]	Molar enthalpy of transition or fusion [kJ/mol]	Normal melting temperature [°C]
[1]	–	–	37.10
[2]	283.80	–	–
[3]	–	10.5	–

[1]
Details	vapor or sublimation pressure [kPa]
433.15 K	4.26
435.15 K	4.48
440.15 K	5.4
443.15 K	5.93
445.15 K	6.29
447.15 K	6.89
450.15 K	7.47
453.15 K	8.23
455.15 K	8.91
457.15 K	9.28
460.15 K	10.15
463.15 K	10.93
465.15 K	11.69
467.15 K	12.28
470.15 K	13.42
473.15 K	14.64
475.15 K	15.17
477.15 K	16.14
480.15 K	17.37
483.15 K	18.4
485.15 K	19.19
487.15 K	20.28
490.15 K	21.69
493.15 K	23.24
495.15 K	24.75
497.15 K	25.56
500.15 K	27.36
503.15 K	29.43
505.15 K	31
507.15 K	32.53
510.15 K	35.18
513.15 K	37.62
515.15 K	38.66
517.15 K	40.64

Cc1cc(C)c[n+]([O-])c1 [3,5-dimethylpyridine N-oxide]
Details	Boiling temperature at pressure P [°C]	Molar enthalpy of transition or fusion [kJ/mol]	Normal melting temperature [°C]
[1]	–	–	101.30
[2]	291.70	–	–
[3]	–	12.4	–

Cc1cc[n+]([O-])cc1 [4-methylpyridine-N-oxide]
Details	Boiling temperature at pressure P [°C]	Molar enthalpy of transition or fusion [kJ/mol]	Normal melting temperature [°C]
[1]	–	–	184.60
[2]	287.30	–	–
[3]	–	18.9	–

O=C(O)c1cc[n+]([O-])cc1 [4-pyridinecarboxylic acid N-oxide]
Details	Molar enthalpy of transition or fusion [kJ/mol]	Normal melting temperature [°C]
[1]	–	268.50
[3]	24.1	–

[O-][n+]1cccc2ccccc21 [quinoline 1-oxide]
Details	Molar enthalpy of transition or fusion [kJ/mol]	Normal melting temperature [°C]
[1]	–	55.40
[3]	10.2	–

O=C(O)c1ccccc1 [benzoic acid]
Details	Normal melting temperature [°C]
[1]	121.60

[O-][n+]1ccccc1 [pyridine N-oxide]
Details	Boiling temperature at pressure P [°C]	Molar enthalpy of transition or fusion [kJ/mol]	Normal melting temperature [°C]
[1]	–	–	63.80
[2]	267.60	–	–
[3]	–	9.68	–

[1]
Details	vapor or sublimation pressure [kPa]
425.15 K	2.5
427.15 K	2.66
433.15 K	3.33
435.15 K	3.59
440.15 K	4.28
443.15 K	4.86
445.15 K	5.22
447.15 K	5.5
450.15 K	6.19
453.15 K	6.84
455.15 K	7.36
457.15 K	7.89
460.15 K	8.88
463.15 K	9.76
465.15 K	10.41
467.15 K	11.15
470.15 K	12.44
473.15 K	13.57
475.15 K	14.4
477.15 K	15.28
480.15 K	16.58

[O-][n+]1ccccc1S [2-mercaptopyridine N-oxide]
Details	Molar enthalpy of transition or fusion [kJ/mol]	Normal melting temperature [°C]
[1]	–	71.20
[3]	13.3	–

[O-][n+]1cccc(O)c1 [3-hydroxypyridine-N-oxide]
Details	Molar enthalpy of transition or fusion [kJ/mol]	Normal melting temperature [°C]
[1]	–	189.70
[3]	18.8	–

O=[N+]([O-])c1cc[n+]([O-])cc1 [4-nitropyridine N-oxide]
Details	Molar enthalpy of transition or fusion [kJ/mol]	Normal melting temperature [°C]
[1]	–	160.80
[3]	17.5	–

O=C(O)c1ccc[n+]([O-])c1 [3-pyridinecarboxylic acid N-oxide]
Details	Molar enthalpy of transition or fusion [kJ/mol]	Normal melting temperature [°C]
[1]	–	258.30
[3]	23.6	–

O=C(O)c1cccc[n+]1[O-] [picolinic acid N-oxide]
Details	Boiling temperature at pressure P [°C]	Molar enthalpy of transition or fusion [kJ/mol]	Normal melting temperature [°C]
[1]	–	–	163.80
[2]	267.60	–	–
[3]	–	30.2	–
